Measurements: patent publication US20240350483A1, “COMBINATION THERAPY FOR THE TREATMENT OF PSYCHIATRIC DISORDER” (GSKB Pharmaceuticals, LLC, priority 2023, published 2024)

Experiments:
[1] = test system: Patients with Major Depressive Disorder (MDD); experiment: Case 2: outpatient treatment of persistent suicidal ideation; type: in vivo, human
Source text: Treatment of Chronic Suicidal Ideation and Behavior in Patients with Major Depressive Disorder (MDD).
A person presented to the outpatient psychiatric clinic accompanied by their spouse and child after being referred by a friend. Their condition had not improved over the past several years despite ongoing psychiatric treatment including in-patient hospitalizations and multiple medication failures. They reported they had been, “feeling the stress”, experiencing racing and ruminating thoughts, difficulty with conversation, and panic. They expressed persistent suicidal ideation. They denied current or past self-injurious behavior.
• Sensorium: Alert and oriented to person, place, time, situation • Appearance: Casually dressed, well kempt, appeared older than stated age, thin to normal body habitus • Affect: Constricted, tearful at times • Mood: Depressed • Speech: Normal rate, tone, and rhythm. Louder when irritable and argumentative • Thought Content: Passive suicidal ideation, no delusions. • Thought Process: Coherent, logical, mildly circumstantial. • Perception: No auditory or visual hallucinations • Memory: Intact • Abstract Thinking: Intact • Judgment: Fair to good • Insight: Good
During their initial psychiatric evaluation, they were diagnosed with Bipolar Disorder, Unspecified; Rule out Amphetamine-induced psychosis due to their intermittent paranoia, impulsivity, and agitation. […]

[2] = test system: Patients with Major Depressive Disorder (MDD); experiment: Case Study 1: outpatient treatment of chronic suicidal ideation and behavior; type: in vivo, human
Description: Treatment of Chronic Suicidal Ideation and Behavior in Patients with Major Depressive Disorder (MDD). A married person and parent of three, presented to the outpatient clinic Jul. 16, 2019 to establish care with a new psychiatrist for management of their depression, mood swings, and persistent suicidal ideations. They reported that their current medications, bupropion XL 300 mg q daily, valproic acid 500 mg BID, quetiapine 200 mg daily, and venlafaxine XR 150 mg BID, modafinil 200 mg q AM and noon, buspirone 10 mg TID are not helping. They had been experiencing acute daily changes in mood consisting of unhappiness, irritability, and anger with lead to arguments with their spouse and family. They had been suffering from persistent depression, self-harm, and suicidal impulses. They had three previous suicide attempts resulting in hospitalization, the most recent being six years prior. • During the Initial Psychiatric Evaluation, they were alert and oriented to person, place, time, and situation. […]

CCc1nn(CCCN2CCN(c3cccc(Cl)c3)CC2)c(=O)n1CCOc1ccccc1 [nefazodone, 1-(3-[4-(3-chlorophenyl)piperazin-1-yl]propyl)-3-ethyl-4-(2-phenoxyethyl)-1H-1,2,4-triazol-5 (4H)-one]
suicidal thoughts after restarting nefazodone ([1]; nefazodone restarted and slightly increased, close follow up): rapid disappearance
suicidal ideation after stopping nefazodone ([1]; nefazodone stopped for several weeks, after eight months of stability): having suicidal ideation
suicidal ideations after forgetting and running out of nefazodone ([2]; Nov. 11, 2019, treatment interrupted): more suicidal ideations
side effect reported ([2]; suspected to be caused by increase in nefazodone to 200 mg BID): drowsiness
